How the values were obtained:
Type in all cases: functional
Aspergillus niger [1] = assay: Antifungal activity against Aspergillus niger by agar diffusion technique
Aspergillus oryzae [2] = assay: Antifungal activity against Aspergillus oryzae by agar diffusion technique
Bacillus subtilis [3] = assay: Antimicrobial activity against Bacillus subtilis by agar diffusion technique
Escherichia coli [4] = assay: Antimicrobial activity against Escherichia coli by agar diffusion technique
Priestia megaterium [5] = assay: Antimicrobial activity against Bacillus megaterium by agar diffusion technique
Bacillus subtilis [6] = assay: Antimicrobial activity against Bacillus subtilis at 25 ug/mL by agar diffusion technique; conditions: read-out: IZ
Priestia megaterium [7] = assay: Antimicrobial activity against Bacillus megaterium at 25 ug/mL by agar diffusion technique; conditions: read-out: IZ
Escherichia coli [8] = assay: Antimicrobial activity against Escherichia coli at 25 ug/mL by agar diffusion technique; conditions: read-out: IZ
Aspergillus niger [9] = assay: Antifungal activity against Aspergillus niger at 25 ug/mL by agar diffusion technique; conditions: read-out: IZ
Aspergillus oryzae [10] = assay: Antifungal activity against Aspergillus oryzae at 25 ug/mL by agar diffusion technique; conditions: read-out: IZ

| SMILES | inhibition zone (IZ) (Aspergillus niger [1]) [mm] | inhibition zone (IZ) (Aspergillus oryzae [2]) [mm] | inhibition zone (IZ) (Bacillus subtilis [3]) [mm] | inhibition zone (IZ) (Escherichia coli [4]) [mm] | inhibition zone (IZ) (Priestia megaterium [5]) [mm] | zone of inhibition at 25 µg/mL (Bacillus subtilis [6]) [mm] | zone of inhibition at 25 µg/mL (Priestia megaterium [7]) [mm] | zone of inhibition at 25 µg/mL (Escherichia coli [8]) [mm] | zone of inhibition at 25 µg/mL (Aspergillus niger [9]) [mm] | zone of inhibition at 25 µg/mL (Aspergillus oryzae [10]) [mm] |
| --- | --- | --- | --- | --- | --- | --- | --- | --- | --- | --- |
| O=c1c2c(ncn1/N=C/C1=C(Cl)c3ccccc3CC1)sc(=S)n2-c1ccccc1 | 78 | 86 | 95 | 85 | 92 | – | – | – | – | – |
| COc1ccc(/N=N/c2sc(N/N=C/C3=C(Cl)c4ccccc4CC3)nc2-c2ccccc2)cc1 | 75 | 86 | 90 | 55 | 84 | – | – | – | – | – |
| O=C1/C(=C\c2ccc(Cl)cc2)S/C(=N\N=C\C2=C(Cl)c3ccccc3CC2)N1c1ccccc1 | 58 | 69 | 42 | – | 43 | – | – | – | – | – |
| CC1(C)S[C@@H]2[C@H](NC(=O)[C@H](N)c3ccccc3)C(=O)N2[C@H]1C(=O)O [AMPICILLIN] | – | – | – | – | – | 40 | 29 | 26 | 33 | – |
| O=C1CSC(N/N=C/C2=C(Cl)c3ccccc3CC2)=N1 | 66 | 78 | 35 | 30 | 40 | – | – | – | – | – |
| CCOC(=O)C1SC(N/N=C/C2=C(Cl)c3ccccc3CC2)=NC1=O (configuration not stated) | 69 | 73 | 42 | – | 35 | – | – | – | – | – |
| O=C1N=C(N/N=C/C2=C(Cl)c3ccccc3CC2)S/C1=C/c1ccc(Cl)cc1 | 75 | 74 | 34 | 25 | 34 | – | – | – | – | – |
| COc1ccc(/N=N/c2sc(N/N=C/C3=C(Cl)c4ccccc4CC3)nc2C)cc1 | 80 | 86 | 87 | 50 | 85 | – | – | – | – | – |
| Nc1sc(=S)n(-c2ccccc2)c1C(=O)N/N=C/C1=C(Cl)c2ccccc2CC1 | 64 | 75 | 89 | 60 | 82 | – | – | – | – | – |
| ClC1=C(/C=N/Nc2nc(-c3ccccc3)c(/N=N/c3ccccc3)s2)CCc2ccccc21 | 79 | 82 | 85 | 49 | 79 | – | – | – | – | – |
| Cc1csc(N/N=C/C2=C(Cl)c3ccccc3CC2)n1 | 72 | 75 | 55 | 40 | 60 | – | – | – | – | – |
| Cc1nc(N/N=C/C2=C(Cl)c3ccccc3CC2)sc1/N=N/c1ccccc1 | 84 | 89 | 81 | 60 | 86 | – | – | – | – | – |
| ClC1=C(/C=N/Nc2nc(-c3ccccc3)cs2)CCc2ccccc21 | 77 | 79 | 65 | 56 | 68 | – | – | – | – | – |
| O=C1CS/C(=N\N=C\C2=C(Cl)c3ccccc3CC2)N1c1ccccc1 | 63 | 71 | 66 | – | 55 | – | – | – | – | – |
| O=C(N[C@H](CO)[C@H](O)c1ccc([N+](=O)[O-])cc1)C(Cl)Cl [CHLORAMPHENICOL] | – | – | – | – | – | 30 | 55 | 48 | 35 | – |
| OC(Cn1cncn1)(Cn1cncn1)c1ccc(F)cc1F [FLUCONAZOLE] | – | – | – | – | – | – | – | – | 22 | 16 |

Reference: ChEMBL document CHEMBL1147204, “Synthesis and antimicrobial evaluation of some new thiazole, thiazolidinone and thiazoline derivatives starting from 1-chloro-3,4-dihydronaphthalene-2-carboxaldehyde” (2007)
